Data published in paper PMC9861386, “N-Heterocyclic Carbene-Iridium Complexes as Photosensitizers for In Vitro Photodynamic Therapy to Trigger Non-Apoptotic Cell Death in Cancer Cells” (Molecules, 2023).

Key:
Format in all cases: cell-based, human
PC-3 cells = assay: Subcellular localization by confocal microscopy with MitoTracker Deep Red; conditions: 500 nM, 24 h
From the text: The intracellular localization of complex 4a was studied by confocal laser scanning microscopy. The treatment of PC-3 (human prostate) cells with complex 4a led to the development of intense fluorescence in the cytoplasm (Figure 9B). Specific subcellular location was investigated by staining the organelles with the specific fluorescent probe MitoTracker Deep Red (Figure 9C). […] However, an accumulation of complex 4a in lysosomes or the endoplasmic reticulum cannot be excluded.
Cell imaging was performed on an LSM 710 NLO-Meta confocal microscope with spectral detection (Zeiss, Göttingen, Germany). Images were taken through a 40×/1.2 W objective. Microscopy imaging experiments were performed with PC-3 cells that were cultured in 6-well plates and on glass slides (180,000 cells per well) for 18 h before incubation with complex 4a at different concentrations (0.25 μM, 0.5 μM and 1 μM) for various times. After 24 h, the MitoTracker deep red probe (Fisher Scientific, Illkirch, France) was incubated on live cells at a final concentration of 200 nM during 15 min at 37 °C in a 5% CO2 humidified incubator and then observed in one pass two channels 440–544 nm for complex 4a (two-photon excitation at 720 nm) and 644–700 nm for MitoTracker (excitation at 633 nm) at the same time. Merged images were generated to evaluate colocalization of the mitochondrial probe with complex 4a. […]

MCF7/FasR cells = assay: Cell death with or without pan-caspase inhibitor z-VAD-fmk, MTT; conditions: 500 nM complex, 10 µM z-VAD-fmk, 458 nm irradiation, 72 h
From the text: To determine the mechanism of cell death, we used MCF7 cells transfected to express the human Fas receptor (FasR) or doubly transfected to express the human Fas receptor and human Bcl-xL [75]. Since MCF7 cells express the TNF receptor endogenously, this allowed the study of both Fas- and TNFα-mediated apoptosis in the same cell model to assess whether cell death was dependent on the Bcl-2 family of mitochondrial proteins such as Bcl-xL. […] This is consistent with findings that death receptors such as FasR and TNFR can mediate apoptosis through both the extrinsic pathway (mitochondria-independent by directly activating executioner caspases via upstream caspase-8) and the intrinsic (mitochondrial) pathway controlled by the Bcl-2 family of proteins.
We next evaluated the effect of the pan-caspase inhibitor z-VAD-fmk on caspase signaling. As expected, the treatment with z-VAD-fmk rendered MCF7/FasR cells resistant to TNFα-induced PARP and caspase-7 processing (Figure 14A) and to the loss of cell viability (Figure 14B).
(§1) A tetrazolium-based MTT reagent (3-(4,5-dimethylthiazol-2-yl)-2,5-diphenyltetrazolium bromide) was used to determine cell viability, as previously described. After 72 h of treatment at 37 °C and 5% CO2, cells were incubated with 25 μL MTT solution (5 mg/mL; Sigma-Aldrich) for 4 h. After solubilization with 500 μL of lysis buffer (DMSO), formazan was quantified by spectrophotometry with a microplate reader at 570 nm absorbance (ClarioSTAR, BMG LabTech, Champigny-sur-Marne, France). […] All results were calculated from data obtained in at least three independent experiments.
Figure 11 Bcl-xL and z-VAD-fmk inhibited by Fas- or TNFα-induced cell death in MCF7 cells. […] Cell death was assessed by MTT assay. […]
Figure 14 Evaluation of apoptotic biomarkers. […] (B) Cell viability was evaluated in duplicate samples. Data are expressed as percent (%) of untreated cells and are the means of 3 independent experiments (***, p < 0.0001, NS, not significant).

[1] = test system: MCF7/FasR and MCF7/FasR/Bcl-xL cells; assay: Bcl-xL dependence of cell death, MTT in MCF7/FasR vs MCF7/FasR/Bcl-xL; conditions: complexes: 458 nm irradiation, 10 nM to 1 µM, TNFα 100 ng/mL, 72 h
From the text: To determine the mechanism of cell death, we used MCF7 cells transfected to express the human Fas receptor (FasR) or doubly transfected to express the human Fas receptor and human Bcl-xL [75]. Since MCF7 cells express the TNF receptor endogenously, this allowed the study of both Fas- and TNFα-mediated apoptosis in the same cell model to assess whether cell death was dependent on the Bcl-2 family of mitochondrial proteins such as Bcl-xL. […]
Mitochondrial outer membrane permeabilization (MOMP), which leads to rapid cell death through the release of mitochondrial proteins (including cytochrome c) that activate executioner caspases, is the critical event in intrinsic apoptosis. […] We then assessed whether the cell death induced by our complexes could be abrogated by the overexpression of Bcl-xL.
as §1, with “After 72 h of treatment at 37 °C and 5% CO2, cells were incubated with 25 μL MTT solution (5 mg/mL; Sigma-Aldrich) for 4 h.” left out, “experiments. […]” for “experiments.”
Figure 13 Evaluation of apoptotic biomarkers. […] (B) MTT, ATP and GSH assays were evaluated in duplicate samples. […]

CC(C)[n+]1ccn2[c]1[Ir-3]13([c]4ccccc4-c4cccc[n+]41)([c]1ccccc1-c1cccc[n+]13)[c]1n(cc[n+]1C(C)C)C2.F[P-](F)(F)(F)(F)F [Complex 4a]
Pearson colocalization coefficient with MitoTracker Deep Red (mitochondria) (PC-3 cells): 88%
effect of z-VAD-fmk on cell death induced by the complex (MCF7/FasR cells): could not prevent cell death
effect of Bcl-xL overexpression on loss of cell viability [1]: not affected by Bcl-xL overexpression
